Measured values taken from PubChem BioAssay (NCI).
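All cell lines were grown in 96-well plates and treated with compound for 48 hours. The concentration for full growth arrest is given as TGI.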

How the values were obtained:
Test in all cases: NCI-60 cell line screen, 48 h
786-0 renal = tested on: 786-0 renal
A549 NSCLC = tested on: A549 NSCLC
ACHN renal = tested on: ACHN renal
BT-549 breast = tested on: BT-549 breast
CAKI-1 renal = tested on: CAKI-1 renal
CCRF-CEM leukemia = tested on: CCRF-CEM leukemia
COLO 205 colon = tested on: COLO 205 colon
DU-145 prostate = tested on: DU-145 prostate
EKVX NSCLC = tested on: EKVX NSCLC
HCC-2998 colon = tested on: HCC-2998 colon
HCT-116 colon = tested on: HCT-116 colon
HCT-15 colon = tested on: HCT-15 colon
HL-60(TB) leukemia = tested on: HL-60(TB) leukemia
HOP-62 NSCLC = tested on: HOP-62 NSCLC
HS 578T breast = tested on: HS 578T breast
HT29 colon = tested on: HT29 colon
IGROV1 ovarian = tested on: IGROV1 ovarian
K-562 leukemia = tested on: K-562 leukemia
KM12 colon = tested on: KM12 colon
LOX IMVI melanoma = tested on: LOX IMVI melanoma
M14 melanoma = tested on: M14 melanoma
MALME-3M melanoma = tested on: MALME-3M melanoma
MCF7 breast = tested on: MCF7 breast
MDA-MB-231 breast = tested on: MDA-MB-231 breast
MDA-MB-435 = tested on: MDA-MB-435
MDA-N = tested on: MDA-N
MOLT-4 leukemia = tested on: MOLT-4 leukemia
NCI-H23 lung = tested on: NCI-H23 lung
NCI-H460 lung = tested on: NCI-H460 lung
NCI-H522 lung = tested on: NCI-H522 lung
NCI/ADR-RES ovarian = tested on: NCI/ADR-RES ovarian
OVCAR-3 ovarian = tested on: OVCAR-3 ovarian
OVCAR-4 ovarian = tested on: OVCAR-4 ovarian
OVCAR-5 ovarian = tested on: OVCAR-5 ovarian
OVCAR-8 ovarian = tested on: OVCAR-8 ovarian
PC-3 prostate = tested on: PC-3 prostate
RXF 393 renal = tested on: RXF 393 renal
SF-268 CNS = tested on: SF-268 CNS
SF-295 CNS = tested on: SF-295 CNS
SF-539 CNS = tested on: SF-539 CNS
SK-MEL-2 melanoma = tested on: SK-MEL-2 melanoma
SK-MEL-28 melanoma = tested on: SK-MEL-28 melanoma
SK-MEL-5 melanoma = tested on: SK-MEL-5 melanoma
SK-OV-3 ovarian = tested on: SK-OV-3 ovarian
SN12C renal = tested on: SN12C renal
SNB-19 CNS = tested on: SNB-19 CNS
SNB-75 CNS = tested on: SNB-75 CNS
SW-620 colon = tested on: SW-620 colon
T-47D breast = tested on: T-47D breast
TK-10 renal = tested on: TK-10 renal
U251 CNS = tested on: U251 CNS
UACC-257 melanoma = tested on: UACC-257 melanoma
UACC-62 melanoma = tested on: UACC-62 melanoma
UO-31 renal = tested on: UO-31 renal
A498 renal = tested on: A498 renal
HOP-92 NSCLC = tested on: HOP-92 NSCLC
RPMI-8226 leukemia = tested on: RPMI-8226 leukemia
NCI-H226 lung = tested on: NCI-H226 lung

Measured: TGI

CCOP(=O)(OCC)OC1c2[nH]ccc2-c2cc(C(=O)OC)[nH]c2C1OC (configuration not stated)
> 100 µM: 786-0 renal | A549 NSCLC | ACHN renal | BT-549 breast | CAKI-1 renal | CCRF-CEM leukemia | COLO 205 colon | DU-145 prostate | EKVX NSCLC | HCC-2998 colon | HCT-116 colon | HCT-15 colon | HL-60(TB) leukemia | HOP-62 NSCLC | HS 578T breast | HT29 colon | IGROV1 ovarian | K-562 leukemia | KM12 colon | LOX IMVI melanoma | M14 melanoma | MALME-3M melanoma | MCF7 breast | MDA-MB-231 breast | MDA-MB-435 | MDA-N | MOLT-4 leukemia | NCI-H23 lung | NCI-H460 lung | NCI-H522 lung | NCI/ADR-RES ovarian | OVCAR-3 ovarian | OVCAR-4 ovarian | OVCAR-5 ovarian | OVCAR-8 ovarian | PC-3 prostate | RXF 393 renal | SF-268 CNS | SF-295 CNS | SF-539 CNS | SK-MEL-2 melanoma | SK-MEL-28 melanoma | SK-MEL-5 melanoma | SK-OV-3 ovarian | SN12C renal | SNB-19 CNS | SNB-75 CNS | SW-620 colon | T-47D breast | TK-10 renal | U251 CNS | UACC-257 melanoma | UACC-62 melanoma | UO-31 renal

CC(C)(C)N1C(=O)N=[N+](/C(=C(\c2ccccc2)n2nc([O-])n(C(C)(C)C)c2=O)c2ccccc2)C1=O
> 100 µM: 786-0 renal | A498 renal | A549 NSCLC | ACHN renal | BT-549 breast | CAKI-1 renal | CCRF-CEM leukemia | COLO 205 colon | DU-145 prostate | HCC-2998 colon | HCT-116 colon | HCT-15 colon | HOP-92 NSCLC | HS 578T breast | K-562 leukemia | KM12 colon | LOX IMVI melanoma | M14 melanoma | MCF7 breast | MDA-MB-231 breast | MDA-MB-435 | MDA-N | MOLT-4 leukemia | NCI-H23 lung | NCI-H460 lung | OVCAR-3 ovarian | OVCAR-4 ovarian | OVCAR-5 ovarian | PC-3 prostate | RPMI-8226 leukemia | RXF 393 renal | SF-268 CNS | SF-295 CNS | SF-539 CNS | SK-MEL-2 melanoma | SK-MEL-28 melanoma | SK-MEL-5 melanoma | SK-OV-3 ovarian | SN12C renal | SNB-19 CNS | SNB-75 CNS | SW-620 colon | T-47D breast | TK-10 renal | U251 CNS | UACC-257 melanoma | UACC-62 melanoma | UO-31 renal

C/C=C1/C[C@@H](C)[C@@](C)(O)C(=O)OCC2=CC[N+]3([O-])CC[C@@H](OC1=O)[C@@H]23 (some centres not stated)
> 100 µM: 786-0 renal | A498 renal | A549 NSCLC | ACHN renal | BT-549 breast | CAKI-1 renal | CCRF-CEM leukemia | COLO 205 colon | DU-145 prostate | EKVX NSCLC | HCC-2998 colon | HCT-116 colon | HCT-15 colon | HL-60(TB) leukemia | HOP-92 NSCLC | HS 578T breast | HT29 colon | IGROV1 ovarian | K-562 leukemia | KM12 colon | LOX IMVI melanoma | M14 melanoma | MALME-3M melanoma | MCF7 breast | MDA-MB-231 breast | MDA-MB-435 | MDA-N | MOLT-4 leukemia | NCI-H226 lung | NCI-H23 lung | NCI-H460 lung | NCI-H522 lung | NCI/ADR-RES ovarian | OVCAR-3 ovarian | OVCAR-4 ovarian | OVCAR-5 ovarian | OVCAR-8 ovarian | PC-3 prostate | SF-268 CNS | SF-295 CNS | SF-539 CNS | SK-MEL-2 melanoma | SK-MEL-28 melanoma | SK-MEL-5 melanoma | SK-OV-3 ovarian | SN12C renal | SNB-19 CNS | SNB-75 CNS | SW-620 colon | T-47D breast | TK-10 renal | U251 CNS | UACC-257 melanoma | UACC-62 melanoma | UO-31 renal
